Measured values published in US20250230193A1, “CYCLIC COMPOUND HAVING SELECTIVE KRAS INHIBITORY EFFECT ON HRAS AND NRAS” (CHUGAI SEIYAKU KABUSHIKI KAISHA, priority 2022, published 2025).

Assays:
[1] = molecular target: GDP-bound NRAS wild-type protein (Homo sapiens, UniProt P01111); experiment: Binding to NRAS by surface plasmon resonance (SPR), Single Cycle Kinetics; settings: KD ratio, GDP-bound NRAS wild-type vs GDP-bound KRAS wild-type, SPR
[2] = molecular target: GDP-bound HRAS wild-type protein (Homo sapiens, UniProt P01112); experiment: Binding to HRAS by surface plasmon resonance (SPR), Single Cycle Kinetics; settings: KD ratio, GDP-bound HRAS wild-type vs GDP-bound KRAS wild-type, SPR
GDP-bound HRAS wild-type protein, sequence (P01112 whole entry): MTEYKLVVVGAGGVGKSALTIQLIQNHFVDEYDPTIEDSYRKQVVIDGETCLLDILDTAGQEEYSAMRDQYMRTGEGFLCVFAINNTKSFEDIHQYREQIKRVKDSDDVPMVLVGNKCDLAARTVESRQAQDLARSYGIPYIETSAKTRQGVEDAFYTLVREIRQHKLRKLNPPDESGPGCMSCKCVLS

GDP-bound NRAS wild-type protein, sequence (P01111 whole entry): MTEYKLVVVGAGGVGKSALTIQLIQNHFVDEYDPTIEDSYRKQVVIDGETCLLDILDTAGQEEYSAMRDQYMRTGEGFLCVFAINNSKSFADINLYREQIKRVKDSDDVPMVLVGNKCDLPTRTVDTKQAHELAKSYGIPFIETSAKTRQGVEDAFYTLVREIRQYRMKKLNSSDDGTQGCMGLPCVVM

| Structure (SMILES) | NRAS/KRAS (ratio of KD value for NRAS to KD value for KRAS) [1] | HRAS/KRAS (ratio of KD value for HRAS to KD value for KRAS) [2] |
| --- | --- | --- |
| CCCN(C)C(=O)[C@@H]1CC(=O)N(C)[C@@H](COC)C(=O)N[C@@H]([C@@H](C)CC)C(=O)N(C)CC(=O)N(C)[C@H]2C/C=C\CCN(C2=O)[C@@H](Cc2ccc(C(F)(F)F)cc2)C(=O)N(C)CC(=O)N[C@@H](CCc2cc(F)c(C(F)(F)F)c(F)c2)C(=O)N2C[C@H](OCC)C[C@H]2C(=O)NC2(CC(C)(C)C2)C(=O)N(C)[C@@H](C2CCCC2)C(=O)N1C [PP1672] | A (a compound having 10 or more and less than 20 is denoted as A) | A (a compound having 10 or more and less than 20 is denoted as A) |
| CCCOC[C@H]1C(=O)N[C@@H]([C@@H](C)CC)C(=O)N(C)CC(=O)N(C)[C@H]2C/C=C\CCN(C2=O)[C@@H](Cc2ccc(C(F)(F)F)cc2)C(=O)N(C)CC(=O)N[C@@H](CCc2cc(F)c(C(F)(F)F)c(F)c2)C(=O)N2C[C@H](OCC)C[C@H]2C(=O)NC2(CC(C)(C)C2)C(=O)N(C)[C@@H](C2CCCC2)C(=O)N(C)[C@H](C(=O)N(C)CCC)CC(=O)N1C [PP1673] | A (a compound having 10 or more and less than 20 is denoted as A) | A (a compound having 10 or more and less than 20 is denoted as A) |
| CCO[C@@H]1C[C@H]2C(=O)NC3(CC(C)(C)C3)C(=O)N(C)[C@@H](C3CCCC3)C(=O)N(C)[C@H](C(=O)N(C)C)CC(=O)N(C)[C@@H](C)C(=O)N[C@@H]([C@@H](C)CC)C(=O)N(C)CC(=O)N(C)[C@H]3C/C=C\CCN(C3=O)[C@@H](Cc3ccc(C(F)(F)F)cc3)C(=O)N(C)CC(=O)N[C@@H](CCc3ccc(C(F)(F)F)c(OC)c3)C(=O)N2C1 [PP1674] | A (a compound having 10 or more and less than 20 is denoted as A) | A (a compound having 10 or more and less than 20 is denoted as A) |
| CCO[C@@H]1C[C@H]2C(=O)NC3(CC(C)(C)C3)C(=O)N(C)[C@@H](C3CCCC3)C(=O)N(C)[C@H](C(=O)N(C)C)CC(=O)N(C)[C@@H](CC(F)(F)F)C(=O)N[C@@H]([C@@H](C)CC)C(=O)N(C)CC(=O)N(C)[C@H]3C/C=C\CCN(C3=O)[C@@H](Cc3ccc(C(F)(F)F)cc3)C(=O)N(C)CC(=O)N[C@@H](CCc3ccc(C(F)(F)F)c(OC)c3)C(=O)N2C1 [PP1675] | A (a compound having 10 or more and less than 20 is denoted as A) | B (a compound having 3 or more and less than 10 is denoted as B) |
| CCO[C@@H]1C[C@H]2C(=O)NC3(CC(C)(C)C3)C(=O)N(C)[C@@H](C3CCCC3)C(=O)N(C)[C@H](C(=O)N(C)CC)CC(=O)N(C)[C@@H](COC)C(=O)N[C@@H]([C@@H](C)CC)C(=O)N(C)CC(=O)N(C)[C@H]3C/C=C\CCN(C3=O)[C@@H](Cc3ccc(C(F)(F)F)cc3)C(=O)N(C)CC(=O)N[C@@H](CCc3ccc(C(F)(F)F)c(OC)c3)C(=O)N2C1 [PP1679] | A (a compound having 10 or more and less than 20 is denoted as A) | A (a compound having 10 or more and less than 20 is denoted as A) |
| CC[C@H](C)[C@@H]1NC(=O)[C@H](CC(F)(F)F)N(C)C(=O)C[C@@H](C(=O)N(C)C)N(C)C(=O)[C@H](C2CCCC2)N(C)C(=O)C2(CC(C)(C)C2)NC(=O)[C@@H]2C[C@H](C)CN2C(=O)[C@H](CCc2cc(F)c(C(F)(F)F)c(F)c2)NC(=O)CN(C)C(=O)[C@H](Cc2ccc(C(F)(F)F)cc2)N2CC/C=C\C[C@@H](C2=O)N(C)C(=O)CN(C)C1=O [PP1682] | AA (a compound having 20 or more is denoted as AA) | A (a compound having 10 or more and less than 20 is denoted as A) |
| CCC[C@H]1C(=O)N[C@@H]([C@@H](C)CC)C(=O)N(C)CC(=O)N(C)[C@H]2C/C=C\CCN(C2=O)[C@@H](Cc2ccc(C(F)(F)F)cc2)C(=O)N(C)CC(=O)N[C@@H](CCc2cc(F)c(C(F)(F)F)c(F)c2)C(=O)N2C[C@@H](C)C[C@H]2C(=O)NC2(CC(C)(C)C2)C(=O)N(C)[C@@H](C2CCCC2)C(=O)N(C)[C@H](C(=O)N(C)C)CC(=O)N1C [PP1683] | A (a compound having 10 or more and less than 20 is denoted as A) | A (a compound having 10 or more and less than 20 is denoted as A) |
| CC[C@H](C)[C@@H]1NC(=O)[C@H](CC2CCC2)N(C)C(=O)C[C@@H](C(=O)N(C)C)N(C)C(=O)[C@H](C2CCCC2)N(C)C(=O)C2(CC(C)(C)C2)NC(=O)[C@@H]2C[C@H](C)CN2C(=O)[C@H](CCc2cc(F)c(C(F)(F)F)c(F)c2)NC(=O)CN(C)C(=O)[C@H](Cc2ccc(C(F)(F)F)cc2)N2CC/C=C\C[C@@H](C2=O)N(C)C(=O)CN(C)C1=O [PP1684] | A (a compound having 10 or more and less than 20 is denoted as A) | A (a compound having 10 or more and less than 20 is denoted as A) |
| CCCN(C)C(=O)[C@@H]1CC(=O)N(C)[C@@H](CC(F)F)C(=O)N[C@@H]([C@@H](C)CC)C(=O)N(C)CC(=O)N(C)[C@H]2C/C=C\CCN(C2=O)[C@@H](Cc2ccc(C(F)(F)F)cc2)C(=O)N(C)CC(=O)N[C@@H](CCc2cc(F)c(C(F)(F)F)c(F)c2)C(=O)N2C[C@H](F)C[C@H]2C(=O)NC2(CC(C)(C)C2)C(=O)N(C)[C@@H](C2CCCC2)C(=O)N1C [PP1687] | A (a compound having 10 or more and less than 20 is denoted as A) | A (a compound having 10 or more and less than 20 is denoted as A) |
| CC[C@H](C)[C@@H]1NC(=O)[C@H](CC(F)(F)F)N(C)C(=O)C[C@@H](C(=O)N(C)C)N(C)C(=O)[C@H](C2CCCC2)N(C)C(=O)C2(CC(C)(C)C2)NC(=O)[C@@H]2C[C@@H](F)CN2C(=O)[C@H](CCc2cc(F)c(C(F)(F)F)c(F)c2)NC(=O)CN(C)C(=O)[C@H](Cc2ccc(C(F)(F)F)cc2)N2CC/C=C\C[C@@H](C2=O)N(C)C(=O)CN(C)C1=O [PP1688] | A (a compound having 10 or more and less than 20 is denoted as A) | A (a compound having 10 or more and less than 20 is denoted as A) |
| CCC[C@H]1C(=O)N[C@@H]([C@@H](C)CC)C(=O)N(C)CC(=O)N(C)[C@H]2C/C=C\CCN(C2=O)[C@@H](Cc2ccc(C(F)(F)F)cc2)C(=O)N(C)CC(=O)N[C@@H](CCc2cc(F)c(C(F)(F)F)c(F)c2)C(=O)N2C[C@H](F)C[C@H]2C(=O)NC2(CC(C)(C)C2)C(=O)N(C)[C@@H](C2CCCC2)C(=O)N(C)[C@H](C(=O)N(C)C)CC(=O)N1C [PP1689] | A (a compound having 10 or more and less than 20 is denoted as A) | B (a compound having 3 or more and less than 10 is denoted as B) |
| C#CC[C@H]1C(=O)N[C@@H]([C@@H](C)CC)C(=O)N(C)CC(=O)N(C)[C@H]2C/C=C\CCN(C2=O)[C@@H](Cc2ccc(C(F)(F)F)cc2)C(=O)N(C)CC(=O)N[C@@H](CCc2cc(F)c(C(F)(F)F)c(F)c2)C(=O)N2C[C@H](F)C[C@H]2C(=O)NC2(CC(C)(C)C2)C(=O)N(C)[C@@H](C2CCCC2)C(=O)N(C)[C@H](C(=O)N(C)CC)CC(=O)N1C [PP1691] | A (a compound having 10 or more and less than 20 is denoted as A) | A (a compound having 10 or more and less than 20 is denoted as A) |
| C#CC[C@H]1C(=O)N[C@@H]([C@@H](C)CC)C(=O)N(C)CC(=O)N(C)[C@H]2C/C=C\CCN(C2=O)[C@@H](Cc2ccc(C(F)(F)F)cc2)C(=O)N(C)CC(=O)N[C@@H](CCc2cc(F)c(C(F)(F)F)c(F)c2)C(=O)N2C[C@H](F)C[C@H]2C(=O)NC2(CC(C)(C)C2)C(=O)N(C)[C@@H](C2CCCC2)C(=O)N(C)[C@H](C(=O)N(C)CCC)CC(=O)N1C [PP1692] | AA (a compound having 20 or more is denoted as AA) | A (a compound having 10 or more and less than 20 is denoted as A) |
| CCCC[C@H]1C(=O)N[C@@H]([C@@H](C)CC)C(=O)N(C)CC(=O)N(C)[C@H]2C/C=C\CCN(C2=O)[C@@H](Cc2ccc(C(F)(F)F)cc2)C(=O)N(C)CC(=O)N[C@@H](CCc2cc(F)c(C(F)(F)F)c(F)c2)C(=O)N2C[C@H](F)C[C@H]2C(=O)NC2(CC(C)(C)C2)C(=O)N(C)[C@@H](C2CCCC2)C(=O)N(C)[C@H](C(=O)N(C)C)CC(=O)N1C [PP1693] | AA (a compound having 20 or more is denoted as AA) | A (a compound having 10 or more and less than 20 is denoted as A) |
| CC[C@H](C)[C@@H]1NC(=O)[C@H](CC(C)C)N(C)C(=O)C[C@@H](C(=O)N(C)CC)N(C)C(=O)[C@H](C2CCCC2)N(C)C(=O)C2(CC(C)(C)C2)NC(=O)[C@@H]2C[C@@H](F)CN2C(=O)[C@H](CCc2cc(F)c(C(F)(F)F)c(F)c2)NC(=O)CN(C)C(=O)[C@H](Cc2ccc(C(F)(F)F)cc2)N2CC/C=C\C[C@@H](C2=O)N(C)C(=O)CN(C)C1=O [PP1694] | A (a compound having 10 or more and less than 20 is denoted as A) | A (a compound having 10 or more and less than 20 is denoted as A) |
| CCCN(C)C(=O)[C@@H]1CC(=O)N(C)[C@@H](COC)C(=O)N[C@@H]([C@@H](C)CC)C(=O)N(C)CC(=O)N(C)[C@H]2C/C=C\CCN(C2=O)[C@@H](Cc2ccc(C(F)(F)F)cc2)C(=O)N(C)CC(=O)N[C@@H](CCc2cc(F)c(C(F)(F)F)c(F)c2)C(=O)N2C[C@H](F)C[C@H]2C(=O)NC2(CC(C)(C)C2)C(=O)N(C)[C@@H](C2CCCC2)C(=O)N1C [PP1696] | AA (a compound having 20 or more is denoted as AA) | A (a compound having 10 or more and less than 20 is denoted as A) |
